According to patent publication US11390631B1, “Benzodiazepine derivatives as RSV inhibitors” (priority 2015, dated 2022):

system: Human RSV-A (“Long” strain); experiment: RSV-A assay: inhibition of cytopathic effect in Hep-2 cells, ATPlite readout; type: cell-based, Human respiratory syncytial virus (HRSV); conditions: Hep-2 cells, MOI 0.1, 5-day incubation, ATPlite; read-out: Human RSV-A (“Long” strain) EC50
Source text: Hep-2 cells, (originally derived from tumors grown in irradiated-cortisonised weanling rats that had been injected with epidermoid carcinoma tissue from a person's larynx, but later found to be indistinguishable from HeLa cells by PCR DNA analysis), were used for the culturing of genotype A, “Long” strain RSV. Flasks were inoculated with RSV and viral stocks were collected once cytopathic effect (CPE) was greater than 90%. Viral stocks in 25% sucrose media were snap frozen using liquid nitrogen to increase viral stability. Viral stock titers were quantified by tissue culture infectious dose 50% (TCID50) using 8,000 cells per well and 3-fold viral dilutions across a 96-well plate, cultured for 4 days. Viral stock titers were also quantified by a plaque forming unit assay, as described elsewhere.
Following extensive parameter testing, the final assay is run as follows: Hep-2 cells are seeded into the inner 60 wells of a 96-well plate at 8,000 cells per well in a volume of 50 μL using Growth Media (DMEM without phenol red, 1% L-Glut, 1% Penn/Strep, 1% nonessential amino acids, 10% heat-inactivated FBS). 2-fold serial dilutions of control and test compounds are added to the wells in duplicate in a total volume of 25 μL. Viral stock is then added to the wells at a multiplicity of infection (MOI) of 0.1 in a volume of 25 μL, bringing the total volume of each well to 100 μL. The MOI is calculated using the PFU/mL, or TCID50 if unavailable. Each 96-well plate has a control column of 6 wells with cells and virus but no compound (negative control, max CPE), a column with cells but no compound or virus (positive control, minimum CPE), and a column with no cells or virus or compound (background plate/reagent control). The control wells with cells but no virus are given an additional 25 uL of growth media containing an equal quantity of sucrose as those wells receiving the viral stock in order to keep consistent in media and volume conditions. The outer wells of the plate are filled with 125 μL of moat media (DMEM, 1% Penn/Strep) to act as a thermal and evaporative moat around the test wells. Following a 5-day incubation period, the plates are read using ATPlite (50 uL added per well), which quantifies the amount of ATP (a measure of cell health) present in each well. Assay plates are read using the Envision luminometer. In parallel, cytotoxicity is examined on an additional 96-well plate treated in an identical manner, but substituting the 25 μL of viral stock for 25 μL of growth media. […] EC50 ranges are as follows: A<0.4 μM; B 0.4-0.8 μM; C>0.8 μM and CC50 ranges are as follows: A>50 μM; B 10-50 μM; C<10 μM.

SMILES	EC50
O=C1Nc2ccccc2C(c2ccccc2)=N[C@H]1Nc1nnc(-c2cn(CC3CC3)nc2N2CCOCC2)o1 [Example 447]	400 to 800 nM

same assay, conditions: human respiratory syncytial virus, HEp-2, 120 h, read-out: Human RSV-A (“Long” strain) EC50

SMILES	EC50
COCCn1ccnc1-c1nnc(N[C@H]2N=C(c3ccccc3)c3ccccc3NC2=O)o1 [Example 306]	> 800 nM
O=C1Nc2ccccc2C(c2ccccc2)=NC1Nc1nnc(-c2ccncc2)[nH]1 (stereo not shown) [Example 366]	> 800 nM
Cc1noc(C)c1-c1cc(C#N)ccc1-c1nnc(N[C@H]2N=C(c3ccccc3)c3ccccc3NC2=O)o1 [Example 320]	> 800 nM
O=C1Nc2ccccc2C(c2ccccc2)=N[C@@H]1Nc1nnc(-c2cnc(C(F)(F)F)nc2N2CC3CCC(C2)O3)o1 [Example 290]	> 800 nM
O=C1Nc2ccccc2C(c2ccccc2)=NC1Nc1ncc(-c2ccc(F)cc2)o1 (stereo not shown) [Example 369]	> 800 nM
CC(C)(O)c1nnc(NC2N=C(c3ccccc3)c3ccccc3NC2=O)o1 (stereo not shown) [Example 213]	> 800 nM
COC1CN(c2cc(C(F)(F)F)cnc2-c2nnc(N[C@H]3N=C(c4ccccc4)c4ccccc4NC3=O)o2)C1 [Example 271]	> 800 nM
O=C1Nc2ccccc2C(c2ccccc2)=N[C@@H]1Nc1nnc(-c2nc(C3CC3)ccc2N2CCOCC2)o1 [Example 318]	< 400 nM
O=C1Nc2ccccc2C(c2ccccc2)=N[C@@H]1Nc1nnc(-c2cc3ccccc3nc2N2CCOCC2)o1 [Example 434]	< 400 nM
CC1(C)CC(c2nnc(NC3N=C(c4ccccc4)c4ccccc4NC3=O)o2)C1 (stereo not shown) [Example 206]	> 800 nM
O=C1Nc2ccccc2C(c2ccccc2)=N[C@@H]1Nc1nnc(-c2cccnc2N2CCn3ncnc3C2)o1 [Example 270]	> 800 nM
CCCc1nnc(NC2N=C(c3ccccc3)c3ccccc3NC2=O)o1 (stereo not shown) [Example 190]	> 800 nM
O=C1Nc2ccccc2C(c2ccccc2)=NC1Nc1nnc(-c2ccc(N3CCOCC3)cc2Cl)o1 (stereo not shown) [Example 122]	> 800 nM
N#Cc1cnc(-c2nnc(N[C@H]3N=C(c4ccccc4)c4ccccc4NC3=O)o2)c(N2CCOCC2)c1 [Example 325]	< 400 nM
O=C1Nc2ccccc2C(c2ccccc2)=NC1Nc1nnc(-c2cccnc2N2C[C@H]3COC[C@H]3C2)o1 (stereo partly shown) [Example 267]	> 800 nM
CN(C)c1cc(C(F)(F)F)cnc1-c1nnc(N[C@H]2N=C(c3ccccc3)c3ccccc3NC2=O)o1 [Example 302]	> 800 nM
O=C1Nc2ccccc2C(c2ccccc2)=N[C@@H]1Nc1nnc(-c2nc3ccccn3c2N2CCOCC2)o1 [Example 163]	> 800 nM
N#Cc1ccc(-c2nnc(N[C@H]3N=C(c4ccccc4)c4ccccc4NC3=O)o2)c(-c2ccoc2)c1 [Example 319]	> 800 nM
C[C@H]1CN(c2cc(C#N)cnc2-c2nnc(N[C@H]3N=C(c4ccccc4)c4ccccc4NC3=O)o2)CCO1 [Example 329]	< 400 nM

SMILES	EC50
O=C1Nc2ccccc2C(c2ccccc2)=NC1Nc1nnc(-c2cccc(N3CCOCC3)c2)o1 (stereo not shown) [Example 111]	> 800 nM
O=C1Nc2ccccc2C(c2ccccc2)=N[C@@H]1Nc1nnc(-c2cc(C(F)(F)F)sc2N2CCOCC2)o1 [Example 383]	< 400 nM
Cn1cc(-c2nnc(N[C@H]3N=C(c4ccccc4)c4ccccc4NC3=O)o2)c(N2CCOCC2)n1 [Example 181]	< 400 nM
C[C@@H]1COCCN1c1cc(C#N)ccc1-c1nnc(N[C@H]2N=C(c3ccccc3)c3ccccc3NC2=O)o1 [Example 285]	< 400 nM
O=C1Nc2ccccc2C(c2ccccc2)=NC1Nc1nnc(-c2ccc(-n3cccn3)nc2)o1 (stereo not shown) [Example 211]	> 800 nM
O=C1Nc2ccccc2C(c2ccccc2)=N[C@@H]1Nc1nnc(-c2ccc(N3CCCC3)cc2N2CCOCC2)o1 [Example 317]	< 400 nM
O=C1Nc2ccccc2C(c2ccccc2)=N[C@@H]1Nc1nnc(-c2ncc(C3CCCCC3)cc2N2CCOCC2)o1 [Example 313]	< 400 nM
Cc1nc(-c2nnc(N[C@H]3N=C(c4ccccc4)c4ccccc4NC3=O)o2)c(C2=CCOCC2)s1 [Example 345, (S)-3-((5-(5-(3,6-dihydro-2H-pyran-4-yl)-2-methylthiazol-4-yl)-1,3,4-oxadiazol-2-yl)amino)-5-phenyl-1,3-dihydro-2H-benzo[e][1,4]diazepin-2-one]	< 400 nM
CN[C@H](c1ccccc1)c1nnc(NC2N=C(c3ccccc3)c3ccccc3NC2=O)o1 (stereo partly shown) [Example 238]	> 800 nM
O=C1Nc2ccccc2C(c2ccccc2)=NC1Nc1ccc(-c2ccncc2)nn1 (stereo not shown) [Example 375]	> 800 nM
COc1cc(-c2nnc(NC3N=C(c4ccccc4)c4ccccc4NC3=O)o2)ccc1-n1cnc(C)c1 (stereo not shown) [Example 219]	> 800 nM
COC1CN(c2ncccc2-c2nnc(NC3N=C(c4ccccc4)c4ccccc4NC3=O)o2)C1 (stereo not shown) [Example 258]	> 800 nM
COCCOc1ccc(-c2nnc(NC3N=C(c4ccccc4)c4ccccc4NC3=O)o2)cc1 (stereo not shown) [Example 236]	> 800 nM
O=C1Nc2ccccc2C(c2ccccc2)=NC1Nc1nnc(-c2ncc(N3CCOCC3)cc2Cl)o1 (stereo not shown) [Example 135]	> 800 nM
O=C1Nc2ccccc2C(c2ccccc2)=N[C@@H]1Nc1nnc(-c2sc(Br)cc2N2CCOCC2)o1 [Example 182]	< 400 nM
O=C1Nc2ccccc2C(c2ccccc2)=N[C@@H]1Nc1nnc(-c2ccc(F)cc2N2CC3CCC(C2)O3)o1 [Example 288]	400 to 800 nM
O=C1Nc2ccccc2C(c2ccccc2)=NC1Nc1nnc([C@@H]2CCCO2)o1 (stereo partly shown) [Example 207]	> 800 nM
CC1(c2nnc(NC3N=C(c4ccccc4)c4ccccc4NC3=O)o2)CCNC1 (stereo not shown) [Example 223]	> 800 nM
O=C1Nc2ccccc2C(c2ccccc2)=N[C@@H]1Nc1nnc(-c2nc(C3CCCCC3)sc2N2CCOCC2)o1 [Example 405]	< 400 nM

SMILES	EC50
COCCNc1sc(C(F)(F)F)nc1-c1nnc(N[C@H]2N=C(c3ccccc3)c3ccccc3NC2=O)o1 [Example 473]	< 400 nM
O=C1Nc2ccccc2C(c2ccccc2)=N[C@@H]1Nc1nnc(-c2ncc(C(F)(F)F)cc2N[C@@H]2CCOC2)o1 [Example 464]	< 400 nM
CC1(Nc2cc(C(F)(F)F)cnc2-c2nnc(N[C@H]3N=C(c4ccccc4)c4ccccc4NC3=O)o2)CCOC1 (stereo partly shown) [Example 424]	> 800 nM
O=C1Nc2ccccc2C(c2ccccc2)=NC1Nc1nnc(-c2ncc(C(F)(F)F)cc2CCO)o1 (stereo not shown) [Example 450]	> 800 nM
O=C1Nc2ccccc2C(c2ccccc2)=NC1Nc1nnc(-c2nc(Br)sc2N2CCOCC2)o1 (stereo not shown) [Example 400]	< 400 nM
COCCc1cccn2ncc(-c3nnc(N[C@H]4N=C(c5ccccc5)c5ccccc5NC4=O)o3)c12 [Example 411]	> 800 nM
COCCNc1sccc1-c1nnc(N[C@H]2N=C(c3ccccc3)c3ccccc3NC2=O)o1 [Example 472]	> 800 nM
COCc1ccc2nccc(-c3nnc(N[C@H]4N=C(c5ccccc5)c5ccccc5NC4=O)o3)c2c1 [Example 409]	> 800 nM
O=C1Nc2ccccc2C(c2ccccc2)=N[C@@H]1Nc1nnc(-c2ccc(F)nc2N2CCOCC2)o1 [Example 151, (S)-3-((5-(6-fluoro-2-morpholinopyridin-3-yl)-1,3,4-oxadiazol-2-yl)amino)-5-phenyl-1,3-dihydro-2H-benzo[e][1,4]diazepin-2-one]	< 400 nM
O=C1Nc2ccccc2C(c2ccccc2)=N[C@@H]1Nc1nnc(-c2ncc(N3CCCC3)cc2N2CCOCC2)o1 [Example 314]	< 400 nM
O=C1Nc2ccccc2C(c2ccccc2)=NC1Nc1nnc(CCc2ccccc2)o1 (stereo not shown) [Example 199]	> 800 nM
N#Cc1ccc(-c2nnc(NC3N=C(c4ccccc4)c4ccccc4NC3=O)o2)nc1 (stereo not shown) [Example 24]	400 to 800 nM
O=C1Nc2ccccc2C(c2ccccc2)=NC1Nc1nnc(-c2ccc(N3CCCC3)cc2)o1 (stereo not shown) [Example 184]	400 to 800 nM
O=C1Nc2ccccc2C(c2ccccc2)=NC1Nc1nnc(-c2ccccc2-n2cccn2)o1 (stereo not shown) [Example 283]	> 800 nM
O=C1Nc2ccccc2C(c2ccccc2)=NC1Nc1nnc(-c2cccnc2N2CC3CCC(C2)O3)o1 (stereo not shown) [Example 266]	400 to 800 nM
O=C1Nc2ccccc2C(c2ccccc2)=NC1Nc1nnc(-c2ncccc2N2CCOCC2)o1 (stereo not shown) [Example 132]	< 400 nM
O=C1Nc2ccccc2C(c2ccccc2)=NC1Nc1nnc(-c2nccnc2N2CCOCC2)o1 (stereo not shown) [Example 143]	< 400 nM
CC1(Nc2nnc(-c3ccc(F)cc3)o2)N=C(c2ccccc2)c2ccccc2NC1=O (stereo not shown) [Example 230]	> 800 nM
CO[C@@H](C)CNc1sc(C(F)(F)F)nc1-c1nnc(N[C@H]2N=C(c3ccccc3)c3ccccc3NC2=O)o1 [Example 452]	< 400 nM
